According to ChEMBL document CHEMBL1150941, “The characterization and structure-activity evaluation of toxic norditerpenoid alkaloids from two Delphinium species” (J Nat Prod, 1998):

Experiment: Toxicity in iv dosed white Swiss-Webster mouse
Assay type: organism-based
Conditions: in vivo

Compound CCN1C[C@]2(COC(=O)c3ccccc3N3C(=O)C[C@H](C)C3=O)CC[C@H](O)[C@@]34[C@@H]5C[C@H]6[C@H](OC)[C@@H]5[C@](O)(C[C@@H]6OC)[C@](O)([C@@H](OC)[C@H]23)[C@@H]14 [GRANDIFLORINE] has an LD50 of 8.3 mg/kg.
